Results taken from US20260132132A1, “3A,4,5,6-TETRAHYDRO-1 H-PYRAZOLO[3,4-C]PYRIDIN-7(7AH)-ONE DERIVATIVES AS FACTOR XIIA INHIBITORS” (KALVISTA PHARMACEUTICALS LIMITED, priority 2022, published 2026).

How the values were obtained:
[1] = target: T1, Human Factor XIIa (hFXIIa) (Homo sapiens, UniProt P00748); experiment: Determination of Human Factor XIIa (hFXIIa) inhibition, fluorogenic substrate IC50 assay; format: biochemical; details: fluorogenic substrate H-DPro-Phe-Arg-AFC at Km, 25° C., read-out: Human FXIIa IC50
T1 construct: purchased Enzyme Research Laboratories
T1 sequence (P00748 373-615 limits assumed): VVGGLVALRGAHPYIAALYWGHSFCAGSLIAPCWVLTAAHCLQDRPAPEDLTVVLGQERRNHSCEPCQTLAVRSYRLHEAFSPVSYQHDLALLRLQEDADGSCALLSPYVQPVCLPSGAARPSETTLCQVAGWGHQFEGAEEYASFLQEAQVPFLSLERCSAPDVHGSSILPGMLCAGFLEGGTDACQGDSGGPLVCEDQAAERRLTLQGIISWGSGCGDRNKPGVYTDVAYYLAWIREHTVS
T1 sequence (P00748 20-372 partner limits assumed): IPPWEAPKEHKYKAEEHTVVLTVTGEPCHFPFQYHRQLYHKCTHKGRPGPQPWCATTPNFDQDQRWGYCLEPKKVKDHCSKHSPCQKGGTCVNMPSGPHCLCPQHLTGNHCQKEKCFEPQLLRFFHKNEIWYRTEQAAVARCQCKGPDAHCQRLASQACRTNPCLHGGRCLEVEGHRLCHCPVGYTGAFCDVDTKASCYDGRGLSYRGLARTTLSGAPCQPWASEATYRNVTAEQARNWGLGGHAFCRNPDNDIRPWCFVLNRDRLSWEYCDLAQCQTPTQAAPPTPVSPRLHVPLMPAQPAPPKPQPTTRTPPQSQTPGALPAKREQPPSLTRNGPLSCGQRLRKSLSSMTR
Description: Determination of Human Factor XIIa (hFXIIa) inhibition
The Km for the cleavage of the substrate by hFXIIa was determined by standard transformation of the Michaelis-Menten equation, with subsequent inhibition assays performed at substrate Km concentration.

FXa = FXa (Homo sapiens, UniProt P00742); experiment: Related protease inhibition: FXa, fluorogenic substrate; format: biochemical; details: fluorogenic substrate at Km, 25° C.; H1-H3 = % activity at 40 μM
Chain of FXa (P00742 235-488 limits assumed): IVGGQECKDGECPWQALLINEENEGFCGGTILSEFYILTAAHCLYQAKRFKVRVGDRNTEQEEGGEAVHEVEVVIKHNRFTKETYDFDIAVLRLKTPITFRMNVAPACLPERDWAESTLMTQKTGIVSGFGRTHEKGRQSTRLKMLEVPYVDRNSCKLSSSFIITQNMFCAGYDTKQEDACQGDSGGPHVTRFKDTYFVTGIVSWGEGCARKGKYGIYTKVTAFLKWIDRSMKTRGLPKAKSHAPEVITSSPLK
Chain of FXa (P00742 41-179 partner limits assumed): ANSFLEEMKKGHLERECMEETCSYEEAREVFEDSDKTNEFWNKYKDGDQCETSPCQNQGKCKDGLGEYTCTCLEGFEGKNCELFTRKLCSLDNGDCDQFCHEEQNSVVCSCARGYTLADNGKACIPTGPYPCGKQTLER
Description: Human serine protease enzyme Plasma Kallikrein, KLK1, FXa, Plasmin, Thrombin and Trypsin were assayed for enzymatic activity using an appropriate fluorogenic substrate at Km concentration, FXIa at fixed substrate concentration of 100 μM and various concentrations of the test compound.

SMILES	IC50 [1] [nM]	IC50 (FXa) [nM]
O=C(NCC1CC1)c1nn(-c2cccc(Cl)c2)c2c1CCN(c1cccc(CN3CCCCC3)c1)C2=O [Example 1002, 1-(3-chlorophenyl)-N-(cyclopropylmethyl)-7-oxo-6-(3-(piperidin-1-ylmethyl)phenyl)-4,5,6,7-tetrahydro-1H-pyrazolo[3,4-c]pyridine-3-carboxamide]	300 to 1000	> 10000
CN1CCc2ccc(N3CCc4c(COCC(=O)O)nn(-c5cccc(Cl)c5)c4C3=O)cc2C1=O [Example 1358, 2-((1-(3-chlorophenyl)-6-(2-methyl-1-oxo-1,2,3,4-tetrahydroisoquinolin-7-yl)-7-oxo-4,5,6,7-tetrahydro-1H-pyrazolo[3,4-c]pyridin-3-yl)methoxy)acetic acid]	1000 to 3000	3000 to 10000
CN1CCc2ccc(N3CCc4c(C(=O)NC5CCOC5(C)C)nn(-c5cccc(Cl)c5)c4C3=O)cc2C1=O (stereo not shown) [Example 1197, 1-(3-chlorophenyl)-N-(2,2-dimethyltetrahydrofuran-3-yl)-6-(2-methyl-1-oxo-1,2,3,4-tetrahydroisoquinolin-7-yl)-7-oxo-4,5,6,7-tetrahydro-1H-pyrazolo[3,4-c]pyridine-3-carboxamide]	300 to 1000	> 40000
CN1CCc2ccc(N3CCc4c(C(=O)NCC5CCOC5)nn(-c5cccc(Cl)c5)c4C3=O)cc2C1 (stereo not shown) [Example 1026, 1-(3-chlorophenyl)-6-(2-methyl-1,2,3,4-tetrahydroisoquinolin-7-yl)-7-oxo-N-((tetrahydrofuran-3-yl)methyl)-4,5,6,7-tetrahydro-1H-pyrazolo[3,4-c]pyridine-3-carboxamide]	300 to 1000	10000 to 40000
CN1CCc2ccc(N3CCc4c(C(=O)NC5COC5)nn(-c5cccc(Cl)c5)c4C3=O)cc2C1=O [Example 1342, 1-(3-chlorophenyl)-6-(2-methyl-1-oxo-1,2,3,4-tetrahydroisoquinolin-7-yl)-N-(oxetan-3-yl)-7-oxo-4,5,6,7-tetrahydro-1H-pyrazolo[3,4-c]pyridine-3-carboxamide]	300 to 1000	> 40000
CCNC(=O)c1nn(-c2cccc(Cl)c2)c2c1CCN(c1cccc(N3CC4CC4C3=O)c1)C2=O (stereo not shown) [Example 1368, 1-(3-chlorophenyl)-N-ethyl-7-oxo-6-(3-(2-oxo-3-azabicyclo[3.1.0]hexan-3-yl)phenyl)-4,5,6,7-tetrahydro-1H-pyrazolo[3,4-c]pyridine-3-carboxamide]	1000 to 3000	> 40000
CN1CCc2ccc(N3CCc4c(CNS(C)(=O)=O)nn(-c5cccc(Cl)c5)c4C3=O)cc2C1=O [Example 1403, N-((1-(3-chlorophenyl)-6-(2-methyl-1-oxo-1,2,3,4-tetrahydroisoquinolin-7-yl)-7-oxo-4,5,6,7-tetrahydro-1H-pyrazolo[3,4-c]pyridin-3-yl)methyl)methanesulfonamide]	1000 to 3000	3000 to 10000
COc1cc(CNC(=O)c2nn(-c3cccc(Cl)c3)c3c2CCN(c2ccc4c(c2)C(=O)N(C)CC4)C3=O)nn1C [Example 1186, 1-(3-chlorophenyl)-N-((5-methoxy-1-methyl-1H-pyrazol-3-yl)methyl)-6-(2-methyl-1-oxo-1,2,3,4-tetrahydroisoquinolin-7-yl)-7-oxo-4,5,6,7-tetrahydro-1H-pyrazolo[3,4-c]pyridine-3-carboxamide]	100 to 300	10000 to 40000
O=C(O)CN1CCc2ccc(N3CCc4c(C(=O)NCC5CC5)nn(-c5cccc(Cl)c5)c4C3=O)cc2C1=O [Example 1330, 2-(7-(1-(3-chlorophenyl)-3-((cyclopropylmethyl)carbamoyl)-7-oxo-1,4,5,7-tetrahydro-6H-pyrazolo[3,4-c]pyridin-6-yl)-1-oxo-3,4-dihydroisoquinolin-2(1H)-yl)acetic acid]	1000 to 3000	> 40000

Continued, values first:

IC50 [1] [nM]	IC50 (FXa) [nM]	SMILES
10 to 100	> 40000	COc1cccnc1CNC(=O)c1nn(-c2cccc(Cl)c2)c2c1CCN(c1ccc3c(c1)CN(CCO)CC3)C2=O [Example 1160, 1-(3-chlorophenyl)-6-(2-(2-hydroxyethyl)-1,2,3,4-tetrahydroisoquinolin-7-yl)-N-((3-methoxypyridin-2-yl)methyl)-7-oxo-4,5,6,7-tetrahydro-1H-pyrazolo[3,4-c]pyridine-3-carboxamide]
100 to 300	3000 to 10000	COc1cncc(CNC(=O)c2nn(-c3cccc(Cl)c3)c3c2CCN(c2ccc4c(c2)C(=O)N(C)CC4)C3=O)c1 [Example 1213, 1-(3-chlorophenyl)-N-((5-methoxypyridin-3-yl)methyl)-6-(2-methyl-1-oxo-1,2,3,4-tetrahydroisoquinolin-7-yl)-7-oxo-4,5,6,7-tetrahydro-1H-pyrazolo[3,4-c]pyridine-3-carboxamide]
100 to 300	10000 to 40000	Cc1cc(CNC(=O)c2nn(-c3cccc(Cl)c3)c3c(=O)n(-c4ccc5c(c4)C(=O)N(C)CC5)c(C)nc23)n[nH]1 [Example 3020, 1-(3-chlorophenyl)-5-methyl-6-(2-methyl-1-oxo-1,2,3,4-tetrahydroisoquinolin-7-yl)-N-((5-methyl-1H-pyrazol-3-yl)methyl)-7-oxo-6,7-dihydro-1H-pyrazolo[4,3-d]pyrimidine-3-carboxamide]
100 to 300	10000 to 40000	Cc1cncc(CNC(=O)c2nn(-c3cccc(Cl)c3)c3c2CCN(c2ccc4c(c2)C(=O)N(C)CC4)C3=O)c1 [Example 1201, 1-(3-chlorophenyl)-6-(2-methyl-1-oxo-1,2,3,4-tetrahydroisoquinolin-7-yl)-N-((5-methylpyridin-3-yl)methyl)-7-oxo-4,5,6,7-tetrahydro-1H-pyrazolo[3,4-c]pyridine-3-carboxamide]
100 to 300	10000 to 40000	COCc1cc(CNC(=O)c2nn(-c3cccc(Cl)c3)c3c2CCN(c2ccc4c(c2)CN(CCO)CC4)C3=O)[nH]n1 [Example 1156, 1-(3-chlorophenyl)-6-(2-(2-hydroxyethyl)-1,2,3,4-tetrahydroisoquinolin-7-yl)-N-((3-(methoxymethyl)-1H-pyrazol-5-yl)methyl)-7-oxo-4,5,6,7-tetrahydro-1H-pyrazolo[3,4-c]pyridine-3-carboxamide]
100 to 300	> 40000	Cc1nc2c(C(=O)NCC3CC3)nn(-c3cccc(Cl)c3)c2c(=O)n1-c1ccc2c(c1)C(=O)N(C)CC2 [Example 3014, 1-(3-chlorophenyl)-N-(cyclopropylmethyl)-5-methyl-6-(2-methyl-1-oxo-1,2,3,4-tetrahydroisoquinolin-7-yl)-7-oxo-6,7-dihydro-1H-pyrazolo[4,3-d]pyrimidine-3-carboxamide]
10 to 100	10000 to 40000	Cc1cc(CNC(=O)c2nn(-c3cccc(Cl)c3)c3c2CCN(c2cc4c(cc2F)CCN(CCO)C4)C3=O)[nH]n1 [Example 1125, 1-(3-chlorophenyl)-6-(6-fluoro-2-(2-hydroxyethyl)-1,2,3,4-tetrahydroisoquinolin-7-yl)-N-((3-methyl-1H-pyrazol-5-yl)methyl)-7-oxo-4,5,6,7-tetrahydro-1H-pyrazolo[3,4-c]pyridine-3-carboxamide]
100 to 300	300 to 1000	CCOC(=O)c1nn(-c2cccc(Cl)c2)c2c1CCN(c1ccc3c(c1)CN(C)CC3)C2=O [Example 1013, ethyl 1-(3-chlorophenyl)-6-(2-methyl-1,2,3,4-tetrahydroisoquinolin-7-yl)-7-oxo-4,5,6,7-tetrahydro-1H-pyrazolo[3,4-c]pyridine-3-carboxylate]
100 to 300	> 40000	CN1CCc2ccc(N3CCc4c(C(=O)NCc5cc[nH]n5)nn(-c5cccc(Cl)c5)c4C3=O)cc2C1=O [Example 1245, N-((1H-pyrazol-3-yl)methyl)-1-(3-chlorophenyl)-6-(2-methyl-1-oxo-1,2,3,4-tetrahydroisoquinolin-7-yl)-7-oxo-4,5,6,7-tetrahydro-1H-pyrazolo[3,4-c]pyridine-3-carboxamide]
100 to 300	> 40000	O=C(NCC1CC1)c1nn(-c2cccc(Cl)c2)c2c1CCN(c1cc3c(cn1)CCN(CCO)C3)C2=O [Example 1118, 1-(3-chlorophenyl)-N-(cyclopropylmethyl)-6-(6-(2-hydroxyethyl)-5,6,7,8-tetrahydro-2,6-naphthyridin-3-yl)-7-oxo-4,5,6,7-tetrahydro-1H-pyrazolo[3,4-c]pyridine-3-carboxamide]
10 to 100	3000 to 10000	CCN1CCc2ccc(N3CCc4c(C(=O)NCc5ccccc5)nn(-c5cccc(Cl)c5)c4C3=O)cc2C1 [Example 1021, N-benzyl-1-(3-chlorophenyl)-6-(2-ethyl-1,2,3,4-tetrahydroisoquinolin-7-yl)-7-oxo-4,5,6,7-tetrahydro-1H-pyrazolo[3,4-c]pyridine-3-carboxamide]
